# In patent publication US5373020A, “Substituted 5-(2-((2-aryl-2-hydroxyethyl)amino)propyl)-1,3-benzodioxoles” (American Cyanamid Company, priority 1993, dated 1994):
# Where a name gives a salt, the structure may show the parent alone.
# Molecular target: T1, β3-receptors (Rattus norvegicus, UniProt P26255)
# T1 construct: Rat epididymal fat pads were excised and placed in 0.9% saline; from tissue; host or cells: collagenase-isolated adipocytes from rat epididymal fat pads
# Assay: Stimulation of adipocyte lipolysis (β3-effect)
# Assay type: cell-based
# Procedure: β-Adrenergic receptors can be divided into β1, β2 and β3 -subtypes. Activation of β1 -receptors invokes increases in heart rate while activation of β2 -receptors stimulates glycogen breakdown in muscle and thereby prevents glycogen synthesis. Activation of β3 -receptors stimulates lipolysis (the breakdown of adipose tissue triglycerides to glycerol and free fatty acids), and thereby promotes the loss of fat mass.
# The β3 -effect of the compounds was determined by their ability to stimulate adipocyte lipolysis. Rat epididymal fat pads were excised and placed in 0.9% saline. Four grams of tissue were transferred to a flask with 20 ml of aerated Krebs-Henseleit bicarbonate (KHB) buffer containing 3% fatty acid-free bovine serum albumin to which 75 mg of crude bacterial collagenase (Worthington) had been added. The tissue was incubated for about 45 minutes at 37° C. with gentle shaking. The cells were then washed three times with two volumes of KHB buffer, filtered through two layers of gauze, and brought to a final volume of 80 ml with KHB buffer. One ml aliquots of the cell suspension were added to plastic test tubes containing the appropriate additions of vehicle or compound. The cells were gassed for 1 minute with 95% O2 -5% CO2, capped, and incubated at 37° C. with continuous shaking for a total of 30 minutes. The reaction was stopped by adding 0.1 ml of 30% perchloric acid and 0.1 ml of chloroform. After centrifugation, 0.5 ml of supernatant was transferred to another test tube and neutralized with 0.04 ml of 3M K2 CO3 -0.5M triethanolamine. The amount-of glycerol generated from the hydrolysis of endogenous triglycerides was determined in a coupled-enzyme spectrophotometric assay. […] The test tubes were incubated for 40 minutes at 37° C. with constant shaking. […] This value was corrected for the amount of NADH generated in the absence of glycerol by incubating another aliquot of the neutralized extract with the same assay mixture but without glycerokinase.
# T1 sequence (P26255 whole entry): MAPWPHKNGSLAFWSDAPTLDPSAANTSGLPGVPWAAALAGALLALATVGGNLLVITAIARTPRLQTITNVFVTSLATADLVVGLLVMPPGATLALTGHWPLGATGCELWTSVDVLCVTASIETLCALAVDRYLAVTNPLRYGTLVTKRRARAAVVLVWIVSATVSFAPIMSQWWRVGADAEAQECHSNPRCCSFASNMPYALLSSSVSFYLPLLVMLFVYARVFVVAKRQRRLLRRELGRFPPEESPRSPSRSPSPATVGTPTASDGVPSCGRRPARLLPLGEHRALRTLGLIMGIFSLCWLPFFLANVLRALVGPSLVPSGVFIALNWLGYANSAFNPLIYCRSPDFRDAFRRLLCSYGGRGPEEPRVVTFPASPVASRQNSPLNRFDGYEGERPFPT
smiles,measurement,setting,value
"COC(=O)C1(C(=O)OC)Oc2ccc(C[C@@H](C)NC[C@H](O)c3cccc(Cl)c3)cc2O1 (stereo in doubt) [CL1, (R* R*)-(±)-5-(2-((2-(3-chlorophenyl)-2-hydroxyethyl)amino)propyl)-1,3-benzodioxole-2,2-dicarboxylic acid, dimethyl ester hydrobromide]",times more selective for lipolysis than prior art compound,"CL2 vs BRL2, CL1 vs BRL1",3 times
same,"Relative Selectivity (CL/BRL), Atria","CL2 vs BRL2, CL1 vs BRL1, lipolysis over atria",3.1
same,"Relative Selectivity (CL/BRL), Gly. Syn.","CL2 vs BRL2, CL1 vs BRL1, lipolysis over glycogen synthesis",3.0
same,Selectivity for Lipolysis over Atria ((EC50 - β1)/(EC50 - β3)),ratio EC50 β1 / EC50 β3,47
same,Selectivity for Lipolysis over Gly. Syn. ((EC50 - β2)/(EC50 - β3)),ratio EC50 β2 / EC50 β3,27
